# Assays:
# MIA-PaCa2 cells = test: MTT cytotoxicity / cell viability assay, MIA-PaCa2; format: cell-based; settings: Homo sapiens, MIA PaCa-2, 72 hours post-treatment, read-out: IC50 values in specified pancreatic cancer cell line
# Description: (§1) Four human PDAC cell lines were used in this study, including MIA-PaCa2, Panc-1, AsPC1, and BxPC3, in which the MIA-PaCa2, Panc-1 and AsPC1 comprises a KRAS mutation (i.e., KRAS mutant cell lines), and the BxPC3 has a wild-type KRAS gene (see, for example, Wen-Hsuan Chang et al., Cancer Lett. (2021), 517: 66-77; and Radu Pirlog et al., J Clin Invest. (2022), 132(14): e161454). The MIA-PaCa2 cells were cultured in RPMI1640 medium containing 10% fetal bovine serum (FBS) and 1% penicillin/streptomycin. The AsPC1, BxPC3 and Panc-1 cells were cultured in DMEM high glucose medium supplemented with 10% FBS and 1% penicillin/streptomycin.
# (§2) Cytotoxicity and cell proliferation were determined by using 3-(4,5-dimethylthiazol-2-yl)-2,5-diphenyltetrazolium bromide (MTT) assay. Specifically, the MIA-PaCa2 and Panc-1 were seeded in a 96-well plate (5×10^3 cells/well). […] The resulting formazan crystals were dissolved using dimethyl sulfoxide (DMSO), and the absorbance was measured at 495 nm using a microplate reader. The cell proliferation ability was quantified as the optical density (OD) value. The cytotoxicity induced by the treatments was determined by calculating the percentage of viable cells (dividing the optical density of the drug-treated samples by that of the control samples). […]
# Panc-1 cells = test: MTT cytotoxicity / cell viability assay, Panc-1; format: cell-based; settings: Homo sapiens, 72 hours post-treatment, read-out: IC50 values in specified pancreatic cancer cell line
# Description: as §1, §2
# AsPC1 cells = test: MTT cytotoxicity / cell viability assay, AsPC1; format: cell-based; settings: Homo sapiens, 72 hours post-treatment, read-out: IC50 values in specified pancreatic cancer cell line
# Description: as §1, §2
# BxPC3 cells = test: MTT cytotoxicity / cell viability assay, BxPC3; format: cell-based; settings: Homo sapiens, BXPC-3, 72 hours post-treatment, read-out: IC50 values in specified pancreatic cancer cell line
# Description: as §1, §2
# [1] = system: MIA-PaCa2 subcutaneous tumor; test: Subcutaneous tumor model; format: in vivo, NOD-SCID male mice; settings: oral, five times per week for three weeks; mivebresib 1 mg/Kg, rucaparib 10 mg/Kg; FIG. 2
# Description: The MIA-PaCa2 cells (2×10^6) were suspended in 10 μL phosphate buffered saline (PBS), and then subcutaneously injected to NOD-SCID male mice (6-8 weeks old). After 14 days (the tumor size was about 100-150 mm^3), PBS, mivebresib (1 mg/Kg), rucaparib (10 mg/Kg), or the combination of mivebresib and rucaparib (1 mg/Kg of mivebresib plus 10 mg/Kg of rucaparib) was orally administered to the mice five times per week, for three consecutive weeks. The tumor size was measured using caliper every 2-3 days, until the mice met humane endpoint criteria and were euthanized.
# Two tumor models, including subcutaneous and orthotropic tumor models, were used in the example to evaluate the anti-tumor effect of mivebresib and rucaparib on pancreatic cancer. As described in “Materials and Methods”, the tumor-bearing mice were respectively administered with PBS, mivebresib, rucaparib, and the combination of mivebresib and rucaparib. The tumor sizes were monitored by caliper and IVIS® imaging system. The results were respectively depicted in FIG. 2 (subcutaneous tumor model) and FIG. 3 (orthotropic tumor model).
# pancreatic cancer = test: Overall survival of pancreatic cancer patients with neoadjuvant chemotherapy; format: in vivo, human; settings: patients with cisplatin treatment (without: 18.96 months); data not shown
# Description: Whether neoadjuvant chemotherapy (a chemotherapy that a cancer patient receives before the primary course of surgical treatment) would affect the overall survival of cancer patients was determined in the example. According to the results, the overall survivals of patient with or without cisplatin treatment were respectively 26.36 and 18.96 months (data not shown). Then, the patients receiving the platinum-based therapy were further divided into responder group and non-responder group.
SMILES,IC50 (MIA-PaCa2 cells),IC50 (Panc-1 cells),IC50 (AsPC1 cells),IC50 (BxPC3 cells),tumor growth (tumor size by caliper) [1],overall survival (pancreatic cancer)
"CCS(=O)(=O)Nc1ccc(Oc2ccc(F)cc2F)c(-c2cn(C)c(=O)c3[nH]ccc23)c1 [Mivebresib, mivebresib]",0.26 µM,1.41 µM,0.191 µM,0.273 µM,inhibited tumor growth,
"CNCc1ccc(-c2[nH]c3cc(F)cc4c3c2CCNC4=O)cc1 [Rucaparib, rucaparib]",2.44 µM,1.98 µM,2.36 µM,2.51 µM,inhibited tumor growth,
N.N.[Cl][Pt][Cl] [cisplatin],,,,,,26.36 months
